Values quoted from earlier work, collected in US20110246079A1, “INDIVIDUAL 5-FLUOROURACILE DOSE OPTIMIZATION IN FOLFOX TREATMENT” (Centre Regional De Lutte Contre, priority 2008, published 2011).

Experiments:
patients = conditions: 5-FU treatment
[1] = biological target: T1, dihydropyrimidine dehydrogenase (DPD) (Homo sapiens, UniProt Q12882); conditions: subject with normal DPD enzymatic activity
T1 construct: This ubiquitous enzyme is a major factor of 5-FU biodisponibility, since in a subject with normal DPD enzymatic activity; endogenous in cells; host or cells: Subject or patient in vivo (enzyme described as ubiquitous)
T1 sequence (Q12882 4-1025): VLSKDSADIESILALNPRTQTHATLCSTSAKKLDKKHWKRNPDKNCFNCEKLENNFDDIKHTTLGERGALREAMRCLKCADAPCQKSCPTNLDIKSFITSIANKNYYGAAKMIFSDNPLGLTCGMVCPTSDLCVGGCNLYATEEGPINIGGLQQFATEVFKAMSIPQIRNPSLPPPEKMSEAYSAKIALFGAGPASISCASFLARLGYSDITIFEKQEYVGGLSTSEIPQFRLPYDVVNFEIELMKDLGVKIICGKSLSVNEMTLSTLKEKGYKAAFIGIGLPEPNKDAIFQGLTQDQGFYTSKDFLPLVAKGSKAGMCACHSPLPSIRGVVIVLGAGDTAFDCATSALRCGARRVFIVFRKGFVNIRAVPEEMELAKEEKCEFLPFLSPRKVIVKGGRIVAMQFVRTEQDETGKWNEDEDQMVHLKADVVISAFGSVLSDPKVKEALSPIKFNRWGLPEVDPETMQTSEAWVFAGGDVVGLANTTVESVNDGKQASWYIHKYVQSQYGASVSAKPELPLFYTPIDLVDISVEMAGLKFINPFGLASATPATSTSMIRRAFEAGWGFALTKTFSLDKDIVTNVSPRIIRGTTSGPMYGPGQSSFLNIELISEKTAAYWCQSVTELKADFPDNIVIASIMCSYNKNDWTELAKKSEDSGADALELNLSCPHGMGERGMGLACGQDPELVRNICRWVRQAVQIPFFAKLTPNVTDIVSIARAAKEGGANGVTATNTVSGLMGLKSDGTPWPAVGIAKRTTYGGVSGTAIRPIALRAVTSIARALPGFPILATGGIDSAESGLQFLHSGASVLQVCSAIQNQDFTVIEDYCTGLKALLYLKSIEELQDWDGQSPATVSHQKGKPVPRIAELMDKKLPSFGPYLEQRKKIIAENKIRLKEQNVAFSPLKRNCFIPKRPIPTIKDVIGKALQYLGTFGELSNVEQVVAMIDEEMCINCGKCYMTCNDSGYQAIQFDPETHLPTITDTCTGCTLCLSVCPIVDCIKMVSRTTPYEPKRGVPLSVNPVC

5-FU metabolism = conditions: in vivo

| SMILES | death, treated patients (patients) | very early polyvisceral toxicity, patients (patients) | severe grade 3-4 toxicity (patients; standard doses) | administered 5-FU available for / metabolized by the anabolic pathway [1] | time for 5-FU plasmatic levels to reach a plateau (after the beginning of the 5-FU continuous infusion) | half-life in blood (in vivo) | effect on 5-FU metabolism (5-FU metabolism) |
| --- | --- | --- | --- | --- | --- | --- | --- |
| O=c1[nH]cc(F)c(=O)[nH]1 [5-FU, 5-fluorouracile] | 0.8% | 5-8% | 20-25% | 20% | about 1 hour | very short |  |
| O=C1[O][Pt]2([NH][C@@H]3CCCC[C@H]3[NH]2)[O]C1=O [oxaliplatin] |  |  |  |  |  |  | inhibits 5-FU metabolism |
